Assay [1] concerns FPR2. Details: method as in PMID 24285541. To be noted: cited from earlier work. The protocol:
To investigate the binding mode of formyl peptide in FPR2, molecular docking of this tripeptide to the FPR2 crystal structure was performed (Supplementary Data 2). […] It was also reported that the polar residue D281^7.32 was crucial for the interaction of FPR2 with certain formyl peptides. It was proposed that this negatively charged residue in FPR2 was repulsive with the C-terminal COO− group of fMLF and the negatively charged glutamate residue in fMLFE, but forms a stable interaction with the p ...

The test system of assay [2] is FPR2. Details: method as in 3 sources, ref 4 = [4]; PMID 24285541; doi:10.1074/jbc.M113.509216; 4. He HQ Troksa EL Caltabiano G Pardo L Ye RD Structural determinants for the interaction of formyl peptide receptor 2 with peptide ligands J. Biol. Chem. 2014 289 2295 2306 10.1074/jbc.M113.509216 24 ||| ref 34 = [34]; PMID 11818455; 34. Bae YS Kim Y Park JC Suh PG Ryu SH The synthetic chemoattractant peptide, Trp-Lys-Tyr-Met-Val-D-Met, enhances monocyte survival via PKC-dependent Akt activation J. Leukoc. Biol. 2002 71 329 338 11 ||| ref 35 = [35]; PMID 11285256; doi:10.1074/jbc.M007769200; 35. Christophe T The synthetic peptide Trp-Lys-Tyr-Met-Val-Met-NH 2 specifically activates neutrophils through FPRL1/lipoxin A 4 receptors and is an agonist for the orphan monocyte-expressed chemoattr. To be noted: cited from earlier work.

Assay [3] concerns FPR2. The conditions noted are these: cited from earlier work. The text has this:
This movement breaks the hydrogen bonds between the C-terminal NH2- group of the peptide and the receptor residues D106^3.33 and R201^5.38, and disrupts the polar interaction network establishe ...

In assay [4] the test system is FPR2 (wild type and mutant V113A). Nature of the assay: cAMP inhibition assay, HEK293 cells, 5 μM forskolin. In kind it is cell-based, human. The text has this:
contribute to the effect of mutations on ligand binding and receptor signaling in addition to the direct disruption of receptor-ligand interaction.
To make the above clear, the statement “The effect of these mutations on ligand binding and receptor signaling could be explained by direct disruption of the receptor-ligand interaction, destabilization of ligand-binding pocket conformation, and/or impairment of global conformational rearrangement required for receptor activation” has been added to the […]
3) The authors use the crystal structures as an opportunity to dock other ligands with the their experimentally determined structure of FPR2. With the exception of LXA4, the docking of formyl peptides with mutagenesis experiments produce insightful results for fMLFK. For LXA4, more work is necessary to justify the docking pose. Otherwise, it is my opinion that it should […]
— We appreciated the reviewer’s comment. Functional assays for LXA4 are challenging due to the poor ability of this ligand to trigger calcium mobilization and IP accumulation. To verify the predicted binding mode of LXA4 in FPR2, we have performed additional assays by […]
fold while having minimal effect on the LXA4-induced cAMP reduction. […]
model of LXA4. […]
was detected and the concentrations were shown. […]
5) How was the omit map calculated to remove any bias for the agonist in SFig. […]

Turning to fMLFII [formyl pentapeptide agonist], the “binding affinity over fMLF at FPR2” value with FPR2 [1] is listed as “increased”. Besides, in the assay on FPR2 [2], the “agonist potency over fMLF at FPR2” value is on record as “increased”.

Regarding N-formyl-Met-Leu-Phe [fMLF], the lower binding affinity result in the assay on FPR2 [1] (FPR2 compared to FPR1) is listed as “over 400 fold”. Also, in the assay on FPR2 [2] (FPR2 compared to FPR1), the “lower potency in inducing Ca2+ mobilization” value was 2000 fold. As for WKYMVM-NH2, in the assay with FPR2 [3], the “reduction in EC50 in stimulating phosphoinositide hydrolysis relative to WKYMVm” value is reported as “over 100 fold”. With `CCCCC[C@H](O)/C=C/C=C\C=C\C=C\[C@@H](O)[C@@H](O)CCCC(=O)O` [LXA4, lipoxin A4], the “effect of mutation on ligand-induced cAMP reduction” value in assay [4] (FPR2 V113A, 30 min) was “minimal”. In addition, in assay [4] (wild-type FPR2, 30 min), the “change in intracellular cAMP” value was “measurable changes”.

Source of the values: paper PMC7058083, “Structural basis of ligand binding modes at the human formyl peptide receptor 2” (Nature Communications, 2020).
